In ChEMBL document CHEMBL3352021, “Naphthyridinone (NTD) integrase inhibitors 4. Investigating N1 acetamide substituent effects with C3 amide groups” (Bioorg Med Chem Lett, 2014):

Experiments:
[1] = tested on: Human immunodeficiency virus; assay: Antiviral activity against pseudotyped HIV by luciferase reporter gene assay; assay type: functional, organism-based; conditions: Human immunodeficiency virus 1
[2] = molecular target: Human immunodeficiency virus type 1 integrase (Human immunodeficiency virus 1, UniProt Q7ZJM1); assay: Inhibition of recombinant HIV-1 integrase by strand-transfer assay
[3] = tested on: Human immunodeficiency virus; assay: Antiviral activity against pseudotyped HIV by luciferase reporter gene assay in presence of human serum albumin; assay type: functional, organism-based; conditions: Human immunodeficiency virus 1
[4] = tested on: Human immunodeficiency virus; assay: Antiviral activity against HIV infected in PBMC assessed as protein-adjusted compound concentration; assay type: functional, organism-based; conditions: Human immunodeficiency virus 1
[5] = Inhibition of CYP450 (unknown origin) up to 33 uM; assay type: ADME; conditions: human
[6] = Oral bioavailability in dog at 5 mg/kg; assay type: ADME, organism-based, Canis lupus familiaris; conditions: in vivo
[7] = Plasma clearance in dog at 1 mg/kg, iv
[8] = Half life in rat at 1 mg/kg, iv as bolus dose; assay type: ADME, organism-based; parameters: dose 1 mg/kg, route intravenous; conditions: in vivo
[9] = Half life in cynomolgus monkey at 1 mg/kg, iv as bolus dose; assay type: ADME, organism-based, Macaca fascicularis; parameters: dose 1 mg/kg, route intravenous; conditions: in vivo
[10] = Plasma clearance in cynomolgus monkey at 1 mg/kg, iv
[11] = Oral bioavailability in cynomolgus monkey at 5 mg/kg; assay type: ADME, organism-based, Macaca fascicularis; conditions: in vivo
[12] = tested on: Human immunodeficiency virus; assay: Antiviral activity against HIV infected in PBMC; assay type: functional, organism-based; conditions: Human immunodeficiency virus 1
[13] = tested on: Human immunodeficiency virus; assay: Ratio of IC50 for pseudotyped HIV by luciferase reporter gene assay in presence of human serum albumin to IC50 for pseudotyped HIV by luciferase reporter gene assay; assay type: functional
[14] = Ratio of plasma concentration in cynomolgus monkey at 5 mg/kg, po to IC90 for HIV infected in PBMC assessed as protein-adjusted compound concentration; assay type: ADME, organism-based; parameters: dose 5 mg/kg, route oral; conditions: in vivo
[15] = Half life in dog at 1 mg/kg, iv as bolus dose; assay type: ADME, organism-based, Canis lupus familiaris; parameters: dose 1 mg/kg, route intravenous; conditions: in vivo
[16] = Ratio of plasma concentration in rat at 5 mg/kg, po to IC90 for HIV infected in PBMC assessed as protein-adjusted compound concentration; assay type: ADME, organism-based; parameters: dose 5 mg/kg, route oral; conditions: in vivo
[17] = Plasma clearance in rat at 1 mg/kg, iv
[18] = Oral bioavailability in rat at 5 mg/kg; assay type: ADME, organism-based; conditions: in vivo
[19] = molecular target: T1, Cytochrome P450 1A2 (Homo sapiens, UniProt P05177); assay: Inhibition of CYP1A2 (unknown origin) at 4.7 uM; assay type: ADME
T1 sequence (P05177 whole entry): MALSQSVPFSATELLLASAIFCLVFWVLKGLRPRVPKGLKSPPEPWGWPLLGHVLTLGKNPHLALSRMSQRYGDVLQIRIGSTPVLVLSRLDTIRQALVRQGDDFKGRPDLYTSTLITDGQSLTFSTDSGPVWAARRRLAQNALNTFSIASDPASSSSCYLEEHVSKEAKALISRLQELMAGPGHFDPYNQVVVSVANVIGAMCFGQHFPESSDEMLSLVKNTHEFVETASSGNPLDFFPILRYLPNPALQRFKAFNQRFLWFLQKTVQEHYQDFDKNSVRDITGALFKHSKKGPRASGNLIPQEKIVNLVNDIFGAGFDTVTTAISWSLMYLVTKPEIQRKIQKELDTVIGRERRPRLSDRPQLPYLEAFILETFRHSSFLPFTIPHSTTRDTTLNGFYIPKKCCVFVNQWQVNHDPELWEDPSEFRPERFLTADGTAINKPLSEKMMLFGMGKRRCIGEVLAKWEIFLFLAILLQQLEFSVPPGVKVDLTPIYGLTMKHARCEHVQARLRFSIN

[20] = Ratio of plasma concentration in dog at 5 mg/kg, po to IC90 for HIV infected in PBMC assessed as protein-adjusted compound concentration; assay type: ADME, organism-based; parameters: dose 5 mg/kg, route oral; conditions: in vivo

Human immunodeficiency virus type 1 integrase, sequence (Q7ZJM1 whole entry): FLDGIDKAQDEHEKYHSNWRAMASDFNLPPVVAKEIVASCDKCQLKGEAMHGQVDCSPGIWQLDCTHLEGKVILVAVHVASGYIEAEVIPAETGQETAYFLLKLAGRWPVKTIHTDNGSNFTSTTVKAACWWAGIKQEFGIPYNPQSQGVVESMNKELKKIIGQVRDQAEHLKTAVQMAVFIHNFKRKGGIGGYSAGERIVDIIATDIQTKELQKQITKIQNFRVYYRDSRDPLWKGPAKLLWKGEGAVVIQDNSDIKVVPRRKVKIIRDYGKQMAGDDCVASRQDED

IC50 [1] [nM] | IC50 [2] [nM] | IC50 [3] [nM] | Structure (SMILES) | also measured
3.5 | 7.6 | 6.7 | COCCNC(=O)c1c(O)c2ncc(Cc3ccc(F)cc3)cc2n(CC(=O)N2CCOCC2)c1=O | –
5.3 | 28 | 13 | COCCNC(=O)c1c(O)c2ncc(Cc3ccc(F)cc3)cc2n(CC(=O)N2CCN(C)CC2)c1=O | –
19 | 8.6 | 25 | CN(C)C(=O)Cn1c(=O)c(C(=O)NCCN2CCOCC2)c(O)c2ncc(Cc3ccc(F)cc3)cc21 | –
2.4 | 11 | 20 | COCCNC(=O)c1c(O)c2ncc(Cc3ccc(F)cc3)cc2n(CC(=O)NCC(F)(F)F)c1=O | –
4.9 | 13 | 16 | CNC(=O)c1c(O)c2ncc(Cc3ccc(F)cc3)cc2n(CC(=O)N2CCCC2)c1=O | –
2.9 | 8.2 | 11 | CCNC(=O)Cn1c(=O)c(C(=O)NC)c(O)c2ncc(Cc3ccc(F)cc3)cc21 | –
3.6 | 6.5 | 82 | CN(C)C(=O)Cn1c(=O)c(C(=O)NC(C)(C)CO)c(O)c2ncc(Cc3ccc(F)cc3)cc21 | –
3.2 | 7.8 | 12 | CNC(=O)c1c(O)c2ncc(Cc3ccc(F)cc3)cc2n(CC(=O)NC(C)C)c1=O | –
3.3 | 8.5 | 39 | COCCNC(=O)c1c(O)c2ncc(Cc3ccc(F)cc3)cc2n(CC(=O)NC2CCC2)c1=O | –
27 | 45 | 124 | COCCNC(=O)c1c(O)c2ncc(Cc3ccc(F)cc3)cc2n(CC(=O)NCCN(C)C)c1=O | –
7.1 | 4.1 | 15 | C[C@H](O)CNC(=O)c1c(O)c2ncc(Cc3ccc(F)cc3)cc2n(CC(=O)N(C)C)c1=O | –
3.1 | 4 | 9 | COCCNC(=O)c1c(O)c2ncc(Cc3ccc(F)cc3)cc2n(CC(=O)N(C)C)c1=O | IC50 [4]: 13 nM; IC90 [4]: 50 nM; inhibition (INH) [5]: Not Active; bioavailability [6]: 7%; clearance [7]: 19.5 mL/min/kg; half-life [8]: 12.5 h; half-life [9]: 5.4 h; clearance [10]: 9.2 mL/min/kg; bioavailability [11]: 31%; IC50 [12]: 4.3 nM; Ratio IC50 [13]: 2.9; Ratio [14]: 0.6; half-life [15]: 1.8 h; Ratio [16]: 0.5; clearance [17]: 3.6 mL/min/kg; bioavailability [18]: 59%
42 | 22 | 83 | CNC(=O)c1c(O)c2ncc(Cc3ccc(F)cc3)cc2n(CC(=O)NCCN(C)C)c1=O | –
9.3 | 3 | 193 | CN(C)C(=O)Cn1c(=O)c(C(=O)NC2CC2)c(O)c2ncc(Cc3ccc(F)cc3)cc21 | –
17 | 5.7 | 35 | CN(C)C(=O)Cn1c(=O)c(C(=O)NCCO)c(O)c2ncc(Cc3ccc(F)cc3)cc21 | –
11 | 9.2 | 70 | C[C@@H](O)CNC(=O)c1c(O)c2ncc(Cc3ccc(F)cc3)cc2n(CC(=O)N(C)C)c1=O | –
4.3 | 7.7 | 22 | COCCNC(=O)c1c(O)c2ncc(Cc3ccc(F)cc3)cc2n(CC(N)=O)c1=O | –
3.3 | 5.7 | 13 | CNC(=O)c1c(O)c2ncc(Cc3ccc(F)cc3)cc2n(CC(=O)NOC)c1=O | –
3.8 | 42 | 11 | COCCNC(=O)c1c(O)c2ncc(Cc3ccc(F)cc3)cc2n(CC(=O)N2CCCC2)c1=O | –

IC50 [1] [nM] | IC50 [2] [nM] | IC50 [3] [nM] | Structure (SMILES) | also measured
7.2 | 23 | 24 | CN(C)C(=O)Cn1c(=O)c(C(=O)NC2(CO)CCCC2)c(O)c2ncc(Cc3ccc(F)cc3)cc21 | –
2.6 | 4.4 | 7.6 | CNC(=O)c1c(O)c2ncc(Cc3ccc(F)cc3)cc2n(CC(=O)NC2CC2)c1=O | –
5.5 | 9.2 | 14 | CCCNC(=O)Cn1c(=O)c(C(=O)NC)c(O)c2ncc(Cc3ccc(F)cc3)cc21 | –
9.2 | 4.4 | 17 | CCN(CC)C(=O)Cn1c(=O)c(C(=O)NC)c(O)c2ncc(Cc3ccc(F)cc3)cc21 | –
5.9 | 8 | 33 | CNC(=O)c1c(O)c2ncc(Cc3ccc(F)cc3)cc2n(CC(=O)NCC2CC2)c1=O | –
17 | 7.1 | 24 | C[C@@H](CO)NC(=O)c1c(O)c2ncc(Cc3ccc(F)cc3)cc2n(CC(=O)N(C)C)c1=O | –
1.7 | 8.1 | – | Cn1c(=O)c(C(=O)NCCO)c(O)c2ncc(Cc3ccc(F)cc3)cc21 [GSK-364735] | –
1.5 | 7.1 | 15 | CNC(=O)c1c(O)c2ncc(Cc3ccc(F)cc3)cc2n(CC(=O)NCC(F)(F)F)c1=O | –
3 | 9 | 14 | CNC(=O)Cn1c(=O)c(C(=O)NCCOC)c(O)c2ncc(Cc3ccc(F)cc3)cc21 | IC50 [4]: 10 nM; IC90 [4]: 41 nM; inhibition (INH) [19]: Active; Ratio [20]: 0.1; bioavailability [6]: 111%; clearance [7]: 13.8 mL/min/kg; half-life [8]: 3.7 h; half-life [9]: 2.3 h; clearance [10]: 2 mL/min/kg; bioavailability [11]: 19%; IC50 [12]: 2.3 nM; Ratio IC50 [13]: 4.5; Ratio [14]: 0.8; half-life [15]: 1.2 h; Ratio [16]: 56; clearance [17]: 0.5 mL/min/kg; bioavailability [18]: 51%
5.9 | 9.3 | 19 | CNC(=O)c1c(O)c2ncc(Cc3ccc(F)cc3)cc2n(CC(=O)N(C)C)c1=O | IC50 [4]: 14 nM; IC90 [4]: 55 nM; inhibition (INH) [5]: Not Active; Ratio [20]: 0.1; bioavailability [6]: 75%; clearance [7]: 10.9 mL/min/kg; half-life [8]: 13.8 h; half-life [9]: 5 h; clearance [10]: 6.3 mL/min/kg; bioavailability [11]: 60%; IC50 [12]: 4.2 nM; Ratio IC50 [13]: 3.3; Ratio [14]: 0.7; half-life [15]: 1.3 h; Ratio [16]: 2.4; clearance [17]: 0.7 mL/min/kg; bioavailability [18]: 69%
3.6 | 4.7 | 12 | COCCNC(=O)c1c(O)c2ncc(Cc3ccc(F)cc3)cc2n(CC(=O)N2CCCCC2)c1=O | –
3.3 | 9.3 | 22 | CNC(=O)Cn1c(=O)c(C(=O)NC)c(O)c2ncc(Cc3ccc(F)cc3)cc21 | –
3.2 | 6.2 | 57 | COCCNC(=O)c1c(O)c2ncc(Cc3ccc(F)cc3)cc2n(CC(=O)NC(C)C)c1=O | –
3 | 7.3 | 18 | COCCNC(=O)c1c(O)c2ncc(Cc3ccc(F)cc3)cc2n(CC(=O)NC2CC2)c1=O | –
3.7 | 6.8 | 91 | CNC(=O)c1c(O)c2ncc(Cc3ccc(F)cc3)cc2n(CC(=O)NCCOC)c1=O | –
4.8 | 6.9 | 16 | CNC(=O)c1c(O)c2ncc(Cc3ccc(F)cc3)cc2n(CC(=O)NC(C)(C)C)c1=O | –
31 | 8.6 | 40 | C[C@H](CO)NC(=O)c1c(O)c2ncc(Cc3ccc(F)cc3)cc2n(CC(=O)N(C)C)c1=O | –
2.2 | 7.6 | 56 | CNC(=O)c1c(O)c2ncc(Cc3ccc(F)cc3)cc2n(CC(N)=O)c1=O | –
